Key:
[1] = system: peritoneal macrophages; assay: Peritoneal lavage: cell counts and CLDI-containing cells; assay type: in vivo, Mice; conditions: PBS-CFZ fed group, peritoneal cavity
Description: In order to deplete tissue macrophages, mice were treated with liposomes containing either 7 mg/mL clodronate or phosphate-buffered saline (PBS) (FormuMax Scientific Inc., Sunnyvale, Calif.) for up to six weeks. Liposomes were injected IP to eliminate macrophages of the liver, spleen, and peritoneal cavity. Mice were initially treated with 200 μL of liposomes, followed by 100 μL injections twice per week to ensure continual depletion of macrophages. Mice were fed CFZ or a control diet continuously for a four week period. Following two weeks of feeding, liposome treatment began for two weeks. After completing four weeks of feeding and two weeks of liposome treatment, the mice were sacrificed and tissues were collected. Following euthanasia, a small incision was made in the lower abdomen. […] The peritoneal lavage was centrifuged for 10 min at 400×g, 4° C,and then resuspended in DMEM media (Life Technologies). The cells were then plated onto 4 or 8 chamber coverglass (#1.5, Lab-Tek II, Nunc, Rochester, N.Y.) for imaging. The cells were allowed to attach overnight and then washed with media.

[2] = cited from earlier work

## CC(C)N=c1cc2n(-c3ccc(Cl)cc3)c3ccccc3nc-2cc1Nc1ccc(Cl)cc1 [CFZ, 3-(p-chloroanilino)-10-(p-chlorophenyl)-2, 10-dihydro-2-isopropyliminophenazine]
[1]
  macrophages containing at least one intracellular CLDI: approximately 50%
[2]
  pharmacologically-relevant concentrations measured in serum: 1 to 20 μM
